Test results reported in ChEMBL document CHEMBL5614425, “Novel inhibitors of bromodomain and extra-terminal domain trigger cell death in breast cancer cell lines” (2024).

Tests used:
[1] = molecular target: T1, NAD-dependent protein deacetylase sirtuin-2 (Homo sapiens) (UniProt Q8IXJ6); experiment: Inhibition of SIRT2 (unknown origin) using IU179 as substrate incubated for 30 mins by Fluor de Lys sirtuin assay relative to control; design: concentration or dose not given beside the values
T1 sequence (whole entry): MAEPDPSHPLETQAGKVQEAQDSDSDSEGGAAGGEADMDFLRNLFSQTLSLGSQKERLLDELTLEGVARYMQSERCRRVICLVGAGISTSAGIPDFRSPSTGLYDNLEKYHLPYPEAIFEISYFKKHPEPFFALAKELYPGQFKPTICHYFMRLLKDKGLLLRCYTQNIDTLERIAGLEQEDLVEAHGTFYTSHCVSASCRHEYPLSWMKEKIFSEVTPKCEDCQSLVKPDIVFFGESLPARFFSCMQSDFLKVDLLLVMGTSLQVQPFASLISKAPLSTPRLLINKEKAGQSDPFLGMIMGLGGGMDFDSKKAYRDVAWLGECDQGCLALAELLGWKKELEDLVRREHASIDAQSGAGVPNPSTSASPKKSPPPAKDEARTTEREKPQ

[2] = tested on: T47D; experiment: Antiproliferative activity against human T47D cells assessed as decrease in cell numbers at 10 to 100 uM incubated for 24 hrs by PI staining based analysis relative to control; format: functional; design: scale not given: the % may be the effect or the level left; details: dose 10-100 µM
[3] = tested on: T47D; experiment: Antitumor activity against human T47D cell spheroids assessed as reduction in spheroid growth at 10 to 100 uM measured for >200 hrs by Image J analysis relative to control; format: functional; design: scale not given: the % may be the effect or the level left; details: dose 10-100 µM
[4] = tested on: T47D; experiment: Antitumor activity against human T47D cell spheroids assessed as reduction in spheroid growth at 100 uM measured for >200 hrs by Image J analysis relative to control; format: functional; design: scale not given: the % may be the effect or the level left

inhibition [1] [%]	Structure (SMILES)	Activity [2] [%]	Activity [3] [%]	Activity [4] [%]
< 50	NC(=O)C(NC(=O)CCCOc1ccc2c(c1)CCC(=O)N2)C(N)=O	–	–	–
< 50	Cc1cnc2c(c1)N(C(=O)COc1ccc(Cl)c(C)c1)CCC2	–	–	–
< 50	Cc1ccc(NC(=O)c2ccc(S(=O)(=O)N3CCCCCC3)cc2)c(C)c1	>40	~20	100
84	CC1CCCCN1S(=O)(=O)c1ccc(C(=O)Nc2ccc(N3CCOCC3)c3ccncc23)cc1 (centres undefined)	–	–	–
50	COc1cc(/C=N/c2ccc(N3N=C(C)CC3=O)cc2)ccc1O	–	–	–
< 50	CCOc1ccc(C(C)NC(=O)COc2ccc3c(c2)CCC(=O)N3)cc1 (centres undefined)	–	–	–
